This note sets out measurements from US5488049A, “Method of treating learning and memory disorders using benzothiadiazide derivatives as nootropic agents” (FIDIA - Georgetown Institute for the Neuro-Sciences, priority 1993, dated 1996).

“Also recorded” adds a separate entry of the source.

One experiment deals with AMPA receptor. Description: Fast application with double barrel pipette: AMPA receptor desensitization in outside-out patches from CAl hippocampal pyramidal neurons. Type of experiment: cell-based, rat. The method, then: Young rats (12-16 days old) were decapitated and the brains quickly removed and placed in ice-cold Ringer solution. Thin slices of hippocampus (250 μm) were then cut with a vibratome slicer (Lancer, St. Louis, Mo.) and kept in Ringer solution at 37° C. until use. The experiments were carried out at room temperature with the slice totally submerged in a 1 ml volume recording chamber and under continuous perfusion with Ringer solution at a rate of 6 ml/min using an upright Hoffman modulation contrast microscope (Carl Zeiss, Germany) equipped with a 40×water immersion objective.
Media and drug application. The external Ringer solution contained (in mM): NaCl 120; KCl 3.1; CaCl2 2; MgCl2 1; KH2 PO4 1; NaHCO3 26; glucose 2.7; and it was continuously bubbled with 95% O2 and 5% CO2. Patch pipettes were filled with a solution containing (in mM): K-gluconate 140; MgCl2 1; ATP.Mg 2; EGTA 0.5; HEPES-KOH 10, pH 7.2. All the drugs under investigation were applied through the recording chamber perfusion system via parallel inputs having a common entry into the chamber. Agonist application was attained using two different systems that allowed a slow or a rapid solution change. Slow solution changes were used during recordings in whole-cell configuration and were obtained by exchanging the solution of the recording chamber within a few seconds. Fast solution changes were obtained with the use of the Y-shaped tubing method that allows complete exchange of solution in less than 10 ms, and is described in detail by Murase et al. (1989).
Briefly, a polyethylene tubing (1 mm i.d.) is bent in a U-shaped, and another fine polyethylene tubing (50 μi.d.) and 10 mm length) is inserted into a small hole in the U-tubing making the tip of the Y-tubing. Solutions are fed to the Y-tubing by gravity, and negative pressure facilitates exchange of the solution. The tip of the Y-tubing is positioned 100 μm from the cell investigated, and upon opening and closing of a valve that controls the negative pressure, it was possible to respectively change rapidly and apply a number of different test solutions. This method was used to apply agonists to excised outside-out membrane patches. More rapid drug applications were used to apply agonists to excised outside-out membrane patches, and were obtained through a double-barrelled pipette positioned close to the recording pipette containing the membrane patch. […] The agonist was applied for a period of 150 ms and the time necessary for a complete exchange of the solution was less than 1 ms as measured at the opening of a patch pipette containing different dilutions of the drugs under study. […]
Ionic currents in whole-cell configuration and outside-out excised membrane patches were monitored using the patch clamp technique (15). […]

The test system of experiment [1] is rats. The experiment is described as follows: Water maze: drug action on alprazolam-disrupted learning behavior in rats. As to conditions: IDRA 21 10 mg/kg os, 30 min pretreatment; alprazolam 1.5 mg/kg i.p. The format is in vivo, rat. The method, then:
Rats (male 250 g b.w.) were trained two days, once a day, in maze A (See insert A). […] Rats were exposed to a new maze configuration (Maze B) in 4 successive trials 15, 30, 45, and 60 min after the i.p. injections.
(§1) The water maze apparatus was adapted from Kant et al., (16), and consists of three concentric squares placed inside a 5 ft plastic pool (FIG. 6). The walls of the maze are 50 cm in height and are constructed from black opaque plastic to allow for tracking of the animal with an overhead camera. The alleys between the walls are 16 cm wide. In the center of each wall there is a removable doorway. The opening of doorways allows for the construction of mazes with an increasing number of potential error possibilities. (See diagram for Maze A and Maze B, FIG. 6). The maze is located in a room 10'×15' at constant temperature (18° C.) adjacent to the vivarium. The room is illuminated with overhead lights which also serve as spatial cues. Additional spatial cues are provided by the position of the investigator and a number of small white x's placed within specific locations upon the walls of the maze. The maze is filled with water (18°)C. to a depth of 25 cm.
(§2) Seven days prior to drug studies, rats were tested in Maze A (forced maze) on two consecutive days. Pretesting with the "forced" maze enabled the assessment of the animals' general motor, sensory and motivational abilities, and facilitated the exclusion of those animals unable to meet pretesting criteria. Performance was assessed by determining either swim time, errors committed, or path length measured with a computerized recording device. Errors are defined as whole body entry into alleys not leading directly to the exit platform (i.e., shaded portions in FIG. 6). Rats were excluded from the study if their swim path length and/or number of errors were two standard deviations above the mean […] of the entire group. During the first two trials, the rats were placed into the center of the maze and given a maximum of 180 secs to find the "exit platform" located at the "finish" (FIG. 6). The time required, the number of errors, and the path length were recorded for each trial. […] Rats meeting the criteria were randomly divided into groups. On the day of the experiment, a single trial was run (Maze A) in order to establish a baseline of performance. Following drug administration, the rats were again tested once on Maze A to establish a baseline of post-treatment performance. Following an additional interatrial interval of 30 min., the rats were tested on Maze B.
In these experiments, rats were trained in Maze B 15, 30, 45 and 60 min. after drug injection.

In experiment [2] the test system is rats. The experiment is described as follows: Water maze: drug action on learning and retention in rats. Type of experiment: in vivo, rat. As for the experimental part: Rats (male, 250 g) were trained once a day in maze A (See FIG. 8B forced maze) for 2 consecutive days. The day of the experiment, after a first exposure to maze A, IDRA 21 (15 mg/kg) Aniracetam (500 mg/kg) or vehicle (cont) were administered per oral gavage and 30 min later the animals were exposed once again to Maze A. After 30 min of interatrial rest, rats were exposed to Maze B (see FIG. 8C open maze).
as §1, §2

With `CC1Nc2ccc(Cl)cc2S(=O)(=O)N1` (racemic) [IDRA 21, 7-chloro-3-methyl-3,4-dihydro-2H 1,2,4-benzothiadiazine S-S dioxide], in the experiment on AMPA receptor (1 mM IDRA 21, double barrel, outside-out patches, 4 of 5 patches), the “removal of glutamate-induced desensitization” value is “completely removed the desensitization induced by glutamate in 4 of 5 patches tested”. Moreover, in the experiment on AMPA receptor (summary statement), the “desensitization of AMPA/Kainate receptors (summary)” value is “reduction in the desensitization of AMPA/Kainate receptors”. For the same molecule, the “antagonism of alprazolam amnesic effect” value in the experiment on rats [1] is on record as “reduces the amnesic effect of alprazolam; also recorded: attenuates the learning disruptive effect of Alprazolam”. The “efficacy in improving water maze performance of trained rats, vs aniracetam” value in the experiment with rats [2] (0.2 μmol icv vs aniracetam 1.8 μmol icv) was “at least as efficacious as aniracetam”. Also, the “performance in water maze (errors and time, Maze B)” value with rats [2] (15 mg/kg os) is “significantly improves the performance of rats, reducing the number of errors and the time interval in accomplishing the task in Maze B”. Further, the “improvement of water maze performance” value with rats [2] (FIG. 8A, IDRA 21 15 mg/kg, Aniracetam 500 mg/kg oral) is reported as “improve water performance in rats”. In the experiment with rats [2] (IDRA 21 15 mg/kg, Aniracetam 500 mg/kg per oral gavage, at least 5 rats), the “significance (P) of water maze performance vs control” value was less than 0.05. In addition, in the experiment with rats [2] (racemic form, naive rats and rats with alprazolam-disrupted learning), the “potency vs aniracetam in potentiating learning and enhancing cognitive performance” value is on record as “at least an order of magnitude more potent than aniracetam”.
